Assays:
[1] = test system: Anopheles funestus (metabolic-resistant strain FUMOZ-R); assay: Glazed tile contact test, knock-down; type: in vivo
Protocol: (§1) To produce a suitable preparation Transfluthrin was dissolved in acetone. The active compound solution was pipetted onto a glazed tile and, after drying, adult mosquitoes of the species: • Anopheles gambiae (target-site-resistant and metabolic-resistant strain: RSPH), • Anopheles gambiae (target-site-resitant and metabolic-resistant strain: Tiassalé), • Anopheles gambiae (tar et-site-resitant and metabolic-resistant strain: Akron), • Anopheles gambiae (target-site-resistant strain: VK7), and • Anopheles funestus (metabolic-resistant strain FUMOZ-R) were placed onto the treated tile (each strain was tested on separate tiles). The exposition time was 30 minutes.
(§2) 0.25 hours, 0.5 hours, 1 hour, 2 hour, 3 hour, 4 hour and 24 hours after contact to the treated surface, the knock-down proportion of the test animals in % was determined. Here, 100% (effect) means that all mosquitoes have been killed; 0% (effect) means that none of the mosquitoes have been killed.
(§3) Similarly as outlined in example 2 for Transfluthrin, Metofluthrin efficacy was assessed against • Anopheles gambiae (target-site-resistant and metabolic-resistant strain: RSPH), • Anopheles funestus (metabolic-resistant strain FUMOZ-R), and • Culex quinquefasciatus (metabolic-resistant to DDT; strain P00), with the results shown in Tables 10 to 12. 0.25 hours, 0.5 hours, 1 hour, 2 hour, 3 hour, 4 hour and 24 hours after contact to the treated surface, the knock-down proportion of the test animals in % is depicted in Tables 10 to 12. 100% (effect) means that all mosquitoes have been killed; 0% (effect) means that none of the mosquitoes have been killed.
(§4) Similarly as outlined in example 2 for Transfluthrin, Metofluthrin efficacy was assessed against • Anopheles gambiae (target-site-resistant and metabolic-resistant strain: RSPH), • Anopheles funestus (metabolic-resistant strain FUMOZ-R), and with the results shown in Tables […]. 0.25 hours, 0.5 hours, 1 hour, 2 hour and 3 hours after contact to the treated surface, the knock-down proportion of the test animals in % is depicted in Tables 13 to 14. 100% (effect) means that all mosquitoes have been killed; 0% (effect) means that none of the mosquitoes have been killed.

[2] = test system: Anopheles gambiae (target-site-resistant and metabolic-resistant strain: RSPH); assay: Glazed tile contact test, knock-down; type: in vivo
Protocol: as §1, §2, §3, §4

For `COCc1c(F)c(F)c(COC(=O)C2C(C=C(C)C#N)C2(C)C)c(F)c1F` (centres unmarked) [Momfluorothrin, 2,3,5,6-Tetrafluoro-4-(methoxymethyl)benzyl 3-(2-cyano-1-propen-1-yl)-2,2-dimethylcyclopropanecarboxylate], the Effect % ([1]; 1.6 g/ha, 0.25 h after contact) was 0%, the Effect % ([1]; 1.6 g/ha, 0.5 h after contact) was 0% and the Effect % ([1]; 1.6 g/ha, 1 h after contact) was 0%. The Effect % ([1]; 1.6 g/ha, 2 h after contact) was 10%, the Effect % ([1]; 1.6 g/ha, 3 h after contact) was 20% and the Effect % ([1]; 40 g/ha, 0.25 h after contact) was 100%. For the same compound, the Effect % ([1]; 40 g/ha, 0.5 h after contact) was 100%, the Effect % ([1]; 40 g/ha, 1 h after contact) was 100% and the Effect % ([1]; 40 g/ha, 2 h after contact) was 90%. It also gave an Effect % ([1]; 40 g/ha, 3 h after contact) of 100%, an Effect % ([2]; 1.6 g/ha, 0.25 h after contact) of 10% and an Effect % ([2]; 1.6 g/ha, 0.5 h after contact) of 7%. The Effect % ([2]; 1.6 g/ha, 1 h after contact) was 35%, the Effect % ([2]; 1.6 g/ha, 2 h after contact) was 14% and the Effect % ([2]; 1.6 g/ha, 3 h after contact) was 14%. It also gave an Effect % ([2]; 40 g/ha, 0.25 h after contact) of 100%, an Effect % ([2]; 40 g/ha, 0.5 h after contact) of 100% and an Effect % ([2]; 40 g/ha, 1 h after contact) of 100%. For the same compound, the Effect % ([2]; 40 g/ha, 2 h after contact) was 100% and the Effect % ([2]; 40 g/ha, 3 h after contact) was 100%.

Reference: patent publication US20150289513A1, “USE OF A COMPOUND COMPRISING A POLYFLUOROBENZYL MOIETY AGAINST INSECTICIDE-RESISTANT PESTS” (priority 2012, published 2015)
